The source of these data is patent US9580395B2, “Compositions of dual thyrointegrin antagonists and use in vascular-associated disorders” (Vascular Vision Pharmaceutical Company, priority 2009, dated 2017).

Data set [1] addresses cell surface receptor αvβ3 (Homo sapiens, UniProt P05106+P06756). The following applies: literature (Rebbaa et al. 2008); cited from earlier work.
The test system of data set [2] is angiogenesis-induced by the growth factor basic fibroblast growth factor (FGF). Description: Inhibition of FGF-induced angiogenesis in the chick chorioallantoic membrane (CAM) model. It counts as in vivo. The following applies: Gallus gallus; for inhibition at 0.25 µg/mL: FGF + compound 0.25 μg/ml; for inhibition at 250 µg/mL: 10 μl at 0.25 mg/ml added to FGF impregnated filter. As to the method:
To investigate the structure-activity relationships of novel dual Thyrointegrin inhibitors of the present invention, the effect of each compound on angiogenesis-induced by the growth factor basic fibroblast growth factor (FGF) was assessed in the CAM model as depicted in Table 1.
The data in Table 1 represents a mean±standard deviation (SD), n=8 as compared to FGF alone (p<0.001; 10 μl from the different test compounds were added to the FGF impregnated sterile filter).
The CAM system is a widely-used model in which the chick embryonic membrane is exposed to stimulatory and inhibitory compounds. Ten day-old fertilized chicken eggs (Sunrise Farms Inc, Catskill, N.Y.) were incubated at 37° C. and 55% relative humidity. In the dark, with the help of a candling lamp, a small hole was punctured in the area of the shell covering the air sac using a hypodermic needle. A second hole was punctured on the wider side of the egg above an avascular area of the embryonic membrane. An artificial air sac was created below the second hole by gently applying a vacuum to the first hole using a small rubber squeeze bulb. The vacuum caused the separation of the CAM from the shell. A window of approximately 1.0 cm^2 was cut in the shell over the dropped CAM with the use of a mini drill. The underlying CAM was accessed through this small window. Filter disks were punched from filter paper #1 (Whatman International, Ltd, United Kingdom), and then soaked in 3.0 mg/mL cortisone acetate solution (in 95% ethanol) and air-dried under sterile conditions. To induce angiogenesis, sterile filter disks were saturated with FGF and placed on the CAM using sterile forceps. As a control, disks were saturated with PBS without calcium or magnesium. The window was sealed with Highland Brand transparent tape. After 1 hour, 10 μL of inhibitor were applied topically to the FGF-stimulated CAM. After 48 hours, CAM tissue directly beneath the filter disk was harvested and placed in a 35-mm petri dish for evaluation of angiogenesis. Eight eggs were used per treatment.
Digital Imaging and analysis: CAMs in petri dishes were examined using a SV6 stereomicroscope (Carl Zeiss Microlmaging, Inc) at 50× magnification. Digital images were captured using a 3-CCD color video camera system (Toshiba America, Inc, New York, N.Y.). The images were analyzed using Image-Pro Plus (Media Cybernetics, Inc). The number of branch points within a circular region superimposed on the area of the filter disk was counted for each treatment condition.

Another data set addresses αvβ3 (Homo sapiens, UniProt P05106+P06756). As to the kind of experiment: Inhibition of αvβ3-mediated binding in a specific cell adhesion assay. It counts as cell-based. The following applies: at 100 nM.
The mark [3] stands for this setting: 10 μl on FGF filter, mean ± SD, n=8, vs FGF alone.
[4] abbreviates: post-ester hydrolysis to make the free acid.

Chain of αvβ3 (P06756 31-889 limits assumed): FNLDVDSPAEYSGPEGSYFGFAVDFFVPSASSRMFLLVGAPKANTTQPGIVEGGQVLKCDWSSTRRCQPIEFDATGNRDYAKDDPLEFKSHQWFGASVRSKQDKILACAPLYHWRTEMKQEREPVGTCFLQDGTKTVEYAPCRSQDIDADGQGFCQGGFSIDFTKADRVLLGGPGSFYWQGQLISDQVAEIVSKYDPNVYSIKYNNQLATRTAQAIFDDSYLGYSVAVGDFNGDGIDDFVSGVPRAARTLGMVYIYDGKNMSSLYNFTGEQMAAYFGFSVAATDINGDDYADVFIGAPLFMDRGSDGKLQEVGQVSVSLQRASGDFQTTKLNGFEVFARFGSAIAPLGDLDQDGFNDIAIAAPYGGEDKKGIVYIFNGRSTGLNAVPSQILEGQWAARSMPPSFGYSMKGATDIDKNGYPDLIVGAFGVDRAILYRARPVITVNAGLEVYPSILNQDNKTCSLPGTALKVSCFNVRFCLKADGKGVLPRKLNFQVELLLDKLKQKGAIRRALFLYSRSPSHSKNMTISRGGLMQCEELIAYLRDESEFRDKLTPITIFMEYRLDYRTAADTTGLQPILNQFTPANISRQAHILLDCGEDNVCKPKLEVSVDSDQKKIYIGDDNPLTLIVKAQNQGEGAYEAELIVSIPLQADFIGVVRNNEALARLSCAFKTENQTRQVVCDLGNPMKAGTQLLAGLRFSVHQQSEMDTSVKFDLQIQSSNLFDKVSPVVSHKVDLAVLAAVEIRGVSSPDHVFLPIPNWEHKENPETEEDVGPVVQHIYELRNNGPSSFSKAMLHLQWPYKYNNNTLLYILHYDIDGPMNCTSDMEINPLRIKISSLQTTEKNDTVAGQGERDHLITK
Chain of αvβ3 (P06756 891-1048 partner limits assumed): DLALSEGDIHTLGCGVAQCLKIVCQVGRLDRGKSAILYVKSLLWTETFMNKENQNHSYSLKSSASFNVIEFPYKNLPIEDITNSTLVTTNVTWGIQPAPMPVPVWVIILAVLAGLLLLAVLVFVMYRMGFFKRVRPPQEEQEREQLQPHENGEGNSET
Chain of αvβ3 (P05106 27-788): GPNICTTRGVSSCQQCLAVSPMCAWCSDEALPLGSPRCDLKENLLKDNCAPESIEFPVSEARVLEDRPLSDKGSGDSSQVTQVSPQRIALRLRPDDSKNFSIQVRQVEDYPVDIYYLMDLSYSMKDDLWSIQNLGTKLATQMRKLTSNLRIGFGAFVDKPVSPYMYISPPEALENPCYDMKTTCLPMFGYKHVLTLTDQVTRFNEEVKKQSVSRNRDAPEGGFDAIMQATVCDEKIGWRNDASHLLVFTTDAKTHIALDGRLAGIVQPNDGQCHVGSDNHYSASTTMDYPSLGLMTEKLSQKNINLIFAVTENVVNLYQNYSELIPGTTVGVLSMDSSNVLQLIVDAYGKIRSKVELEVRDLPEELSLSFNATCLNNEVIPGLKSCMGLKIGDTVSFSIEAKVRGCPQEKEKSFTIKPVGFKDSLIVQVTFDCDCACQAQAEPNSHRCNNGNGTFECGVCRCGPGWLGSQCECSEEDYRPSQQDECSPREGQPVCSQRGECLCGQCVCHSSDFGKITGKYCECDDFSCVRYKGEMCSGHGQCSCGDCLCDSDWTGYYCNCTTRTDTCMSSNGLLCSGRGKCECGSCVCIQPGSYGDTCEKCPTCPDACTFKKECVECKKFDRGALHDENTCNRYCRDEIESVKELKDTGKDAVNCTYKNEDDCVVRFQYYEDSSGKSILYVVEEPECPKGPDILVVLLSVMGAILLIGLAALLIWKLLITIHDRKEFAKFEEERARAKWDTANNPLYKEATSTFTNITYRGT
Chain of cell surface receptor αvβ3 (P06756 31-889 limits assumed): as the sequence (P06756 31-889 limits assumed) above
Chain of cell surface receptor αvβ3 (P06756 891-1048 partner limits assumed): as the sequence (P06756 891-1048 partner limits assumed) above
Chain of cell surface receptor αvβ3 (P05106 27-788): as the sequence (P05106 27-788) above

`O=C(O)Cc1cc(I)c(Oc2cc(I)c(O)c(I)c2)c(I)c1` [Tetrac, [4-(4-Hydroxy-3,5-diiodophenoxy)-3,5-diiodophenyl]acetic acid, reference compound]: the “affinity of binding to αvβ3” value in data set [1] is “weak affinity”. In addition, in data set [2] (FGF + compound 10 μg/ml, 10 μl on FGF filter, mean ± SD, n=8, vs FGF alone), the inhibition at 10 µg/mL was determined as 85 ± 11%.
Compound `NC(N)=NCCOc1c(I)cc(Oc2c(I)cc(CC(=O)[O-])cc2I)cc1I.[Li+]` [compound 21, Lithium [4-(4-{2-[(diaminomethylene)amino]ethoxy}-3,5-diiodophenoxy)-3,5-diiodophenyl]acetate] had a melting point of 133 °C. In data set [2] (setting [3]), the inhibition at 0.25 µg/mL is 75 ± 10%.
For `NC(=O)NCCOc1c(I)cc(Oc2c(I)cc(CC(=O)O)cc2I)cc1I` [compound 22, (4-{4-[2-(Carbamoylamino)ethoxy]-3,5-diiodophenoxy}-3,5-diiodophenyl)acetic acid], the melting point was determined as 267 °C. The inhibition at 0.25 µg/mL in data set [2] (setting [3]) came out at 74 ± 13%.
With `NCCCOc1c(I)cc(Oc2c(I)cc(CC(=O)O)cc2I)cc1I` [compound 23, {4-[4-(3-aminopropoxy)-3,5-diiodophenoxy]-3,5-diiodophenyl}acetic acid], the inhibition at 0.25 µg/mL in data set [2] (setting [3]) turned out to be 88 ± 11%.
As to `CC(C)(C)OC(=O)NCCCOc1c(I)cc(Oc2c(I)cc(CC(=O)O)cc2I)cc1I` [compound 30], at 0.1 µM the inhibition at αvβ3 was 66 ± 8%. 250 µg/mL produced 75 ± 7% inhibition in data set [2].
On αvβ3, `COC(=O)Cc1cc(I)c(Oc2cc(I)c(OCCCN)c(I)c2)c(I)c1` [compound 31] gave an inhibition at 0.1 µM of 0%. The same compound showed an inhibition at 250 µg/mL in data set [2] of 0%.
Regarding `NCCCOc1c(I)cc(Oc2c(I)cc(CC(=O)O)cc2I)cc1I` [compound 32], at 0.1 µM the inhibition on αvβ3 (setting [4]) was 100%. Also, the inhibition at 250 µg/mL in data set [2] (setting [4]) turned out to be 88 ± 8%.
At αvβ3, `COC(=O)Cc1cc(I)c(Oc2cc(I)c(OCCCNCc3cccnc3)c(I)c2)c(I)c1` [compound 33] displayed an inhibition at 0.1 µM of 0%. Further, the inhibition at 250 µg/mL in data set [2] was 0%.
As for `O=C(O)Cc1cc(I)c(Oc2cc(I)c(OCCCNCc3cccnc3)c(I)c2)c(I)c1` [compound 34], at αvβ3 (setting [4]), the inhibition at 0.1 µM amounted to 68 ± 7%. For the same compound, the inhibition at 250 µg/mL in data set [2] (setting [4]) stood at 95 ± 11%.
As to `COC(=O)Cc1cc(I)c(Oc2cc(I)c(OCCCN3CCSCC3)c(I)c2)c(I)c1` [compound 35], the inhibition at 0.1 µM at αvβ3 worked out at 0%. The same compound returned an inhibition at 250 µg/mL in data set [2] of 0%.
As for `O=C(O)Cc1cc(I)c(Oc2cc(I)c(OCCCN3CCSCC3)c(I)c2)c(I)c1` [compound 36], testing at 0.1 µM on αvβ3 (setting [4]) gave an inhibition of 93 ± 8%. The same compound returned an inhibition at 250 µg/mL in data set [2] (setting [4]) of 89 ± 10%.
`CCN(CC)CCCOc1c(I)cc(Oc2c(I)cc(CC(=O)OC)cc2I)cc1I` [compound 37]: the inhibition at 0.1 µM at αvβ3 was 1%; at αvβ3 (setting [4]), 100%. Further, the inhibition at 250 µg/mL in data set [2] was 0%; in data set [2] (setting [4]), 83%.
